Test results as given in ChEMBL document CHEMBL1131396, “Structure-activity studies related to ABT-594, a potent nonopioid analgesic agent: effect of pyridine and azetidine ring substitutions on nicotinic acetylcholine receptor binding affinity and analgesic activity in mice” (Bioorg Med Chem Lett, 1998).
pKi: −log10 of the molar value.

Columns and labels:
Mus musculus = species: Mus musculus; assay: Analgesic activity in a mouse hot plate assay; assay type: functional
[1] = target: Neuronal acetylcholine receptor; alpha4/beta2 (Rattus norvegicus, UniProt P09483+P12390); assay: Binding affinity towards Nicotinic acetylcholine receptor alpha4-beta2 in rat brain using [3H]-cytisine as radioligand; assay type: tissue-based
IMR-32 [2] = assay: Maximal response of compound at concentration 3 uM concentration in an in vitro [86Rb+] release assay using IMR-32 cells; assay type: functional, Homo sapiens
IMR-32 [3] = assay: Maximal response of compound was determined in an in vitro [86Rb+] release assay using IMR-32 cells; assay type: functional, Homo sapiens
IMR-32 [4] = assay: Maximal response of compound at 1 uM concentration in an in vitro [86Rb+] release assay using IMR-32 cells; assay type: functional, Homo sapiens
IMR-32 [5] = assay: Maximal response of compound at 10 uM concentration in an in vitro [86Rb+] release assay using IMR-32 cells; assay type: functional, Homo sapiens

Sequence of Neuronal acetylcholine receptor; alpha4/beta2 (P09483 whole entry): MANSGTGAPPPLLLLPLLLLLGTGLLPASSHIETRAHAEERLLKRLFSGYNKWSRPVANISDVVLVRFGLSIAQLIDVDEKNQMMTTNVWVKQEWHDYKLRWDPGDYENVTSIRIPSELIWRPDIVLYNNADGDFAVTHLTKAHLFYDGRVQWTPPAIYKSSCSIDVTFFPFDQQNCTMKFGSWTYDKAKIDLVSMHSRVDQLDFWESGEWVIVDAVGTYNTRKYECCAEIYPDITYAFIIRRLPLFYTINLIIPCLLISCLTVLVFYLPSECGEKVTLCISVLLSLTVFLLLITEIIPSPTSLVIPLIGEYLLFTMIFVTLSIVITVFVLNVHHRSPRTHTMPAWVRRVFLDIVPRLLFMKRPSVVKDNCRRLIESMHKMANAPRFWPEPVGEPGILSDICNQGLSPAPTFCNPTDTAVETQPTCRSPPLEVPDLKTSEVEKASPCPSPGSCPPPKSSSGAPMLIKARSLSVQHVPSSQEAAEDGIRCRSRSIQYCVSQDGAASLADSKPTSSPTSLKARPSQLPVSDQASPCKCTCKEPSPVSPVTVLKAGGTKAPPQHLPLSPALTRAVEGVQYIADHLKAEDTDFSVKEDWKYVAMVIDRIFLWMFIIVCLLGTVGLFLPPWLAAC
Sequence of Neuronal acetylcholine receptor; alpha4/beta2 (P12390 whole entry): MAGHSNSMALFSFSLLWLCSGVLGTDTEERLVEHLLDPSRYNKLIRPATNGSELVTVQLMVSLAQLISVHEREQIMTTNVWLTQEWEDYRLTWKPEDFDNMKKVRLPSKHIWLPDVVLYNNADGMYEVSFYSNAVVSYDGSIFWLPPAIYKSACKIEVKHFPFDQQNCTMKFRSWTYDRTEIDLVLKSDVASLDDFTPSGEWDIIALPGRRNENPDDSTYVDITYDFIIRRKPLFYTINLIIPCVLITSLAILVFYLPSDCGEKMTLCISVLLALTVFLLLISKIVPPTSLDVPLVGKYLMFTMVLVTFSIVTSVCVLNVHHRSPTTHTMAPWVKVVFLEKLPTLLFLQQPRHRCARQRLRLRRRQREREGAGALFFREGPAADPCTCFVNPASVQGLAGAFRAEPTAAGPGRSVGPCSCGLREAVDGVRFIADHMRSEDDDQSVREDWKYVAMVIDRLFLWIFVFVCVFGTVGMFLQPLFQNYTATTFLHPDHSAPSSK

Row | Compound | MED (Mus musculus) | pKi [1] | also measured
1 | c1ccc(-c2ccc(OC[C@@H]3CCN3)cn2)cc1 | >62 µM/kg | 8.64 | 
2 | CC1(C)CN[C@H]1COc1ccc(Cl)nc1 |  | 7.43 | 
3 | c1ccc(-c2cncc(OC[C@@H]3CCN3)c2)cc1 | >62 µM/kg | 10.34 | Max response (IMR-32 [2]): 45%
4 | Cc1ccc(OC[C@H]2CCN2)cn1 | 6.2 µM/kg | 10.28 | 
5 | Brc1ccc(OC[C@@H]2CCN2)cn1 | >6.2 µM/kg | 10.68 | 
6 | c1cncc(OC[C@@H]2CCN2)c1 | >6.2 µM/kg | 10.28 | Max response (IMR-32 [3]): 113%
7 | COc1ccc(OC[C@@H]2CCN2)cn1 | >62 µM/kg | 8.89 | 
8 | Clc1ncc(OC[C@@H]2CCN2)cc1-c1ccccc1 | >6.2 µM/kg | 10.66 | Max response (IMR-32 [4]): 92%
9 | Fc1ccc(OC[C@H]2CCN2)cn1 | 1.9 µM/kg | 10.18 | 
10 | Cc1cncc(OC[C@@H]2CCN2)c1 | >62 µM/kg | 10.33 | 
11 | CCOc1cncc(OC[C@@H]2CCN2)c1 | 62 µM/kg | 10.41 | 
12 | Oc1cncc(OC[C@H]2CCN2)c1 | >62 µM/kg | 10.06 | 
13 | Nc1cncc(OC[C@@H]2CCN2)c1 | >62 µM/kg | 10.09 | 
14 | CC(=O)NCc1cncc(OC[C@@H]2CCN2)c1 | >62 µM/kg | 9.27 | 
15 | O=[N+]([O-])c1cncc(OC[C@@H]2CCN2)c1 | 62 µM/kg |  | 
16 | Clc1cncc(OC[C@H]2CCN2)c1 | 62 µM/kg |  | 
17 | Clc1ccc(OC[C@@H]2CCN2)cn1 | 0.62 µM/kg | 10.40 | Max response (IMR-32 [3]): 166%
18 | Clc1ccncc1OC[C@@H]1CCN1 | >62 µM/kg | 6.59 | 
19 | Clc1cncc(OC[C@@H]2CCN2)c1 | >6.2 µM/kg | 10.38 | 
20 | Clc1ncc(OC[C@@H]2CCN2)cc1Br | 1.9 µM/kg | 10.82 | 
21 | Clc1cc(OC[C@@H]2CCN2)cnc1Cl | 0.62 µM/kg | 10.64 | 
22 | CCCc1cncc(OC[C@@H]2CCN2)c1 | 62 µM/kg | 10.41 | 
23 | Brc1ccc(OC[C@H]2CCN2)cn1 | 0.62 µM/kg |  | 

Row | Compound | MED (Mus musculus) | pKi [1] | also measured
24 | C=Cc1ccc(OC[C@@H]2CCN2)cn1 | >62 µM/kg | 8.90 | 
25 | Fc1ccc(OC[C@@H]2CCN2)cn1 | 6.2 µM/kg | 10.24 | 
26 | Fc1ncccc1OC[C@@H]1CCN1 | 1.9 µM/kg |  | 
27 | Brc1cncc(OC[C@@H]2CCN2)c1 | >19 µM/kg | 9.74 | 
28 | Clc1ncccc1OC[C@@H]1CCN1 | 62 µM/kg |  | 
29 | Cc1nc(Cl)ccc1OC[C@@H]1CCN1 | >62 µM/kg | 8.62 | 
30 | FC(F)(F)c1cncc(OC[C@@H]2CCN2)c1 | >19 µM/kg | 9.31 | 
31 | Fc1cncc(OC[C@@H]2CCN2)c1 | 6.2 µM/kg | 10.12 | 
32 | Cc1ccc(OC[C@@H]2CCN2)cn1 | 0.62 µM/kg | 10.24 | 
33 | Clc1ccncc1OC[C@H]1CCN1 | >6.2 µM/kg | 7.92 | 
34 | CCc1cncc(OC[C@@H]2CCN2)c1 | >62 µM/kg | 10.00 | Max response (IMR-32 [5]): 90%
35 | Clc1ncccc1OC[C@H]1CCN1 | 62 µM/kg |  | 
36 | COc1ccc(OC[C@H]2CCN2)cn1 | >62 µM/kg |  | 
37 | N#Cc1ccc(OC[C@@H]2CCN2)cn1 | 62 µM/kg |  | 
38 | CCc1ccc(OC[C@@H]2CCN2)cn1 | >6.2 µM/kg | 7.72 | 
39 | NCc1cncc(OC[C@@H]2CCN2)c1 | >6.2 µM/kg | 8.36 | 
40 | Clc1ccc(OC[C@H]2CCN2)cn1 [TEBANICLINE] | 0.62 µM/kg | 10.40 | 
41 | Fc1ncccc1OC[C@H]1CCN1 | >62 µM/kg |  | 
42 | Cc1ncccc1OC[C@@H]1CCN1 | >62 µM/kg | 8.87 | 
43 | N#Cc1cncc(OC[C@@H]2CCN2)c1 | >6.2 µM/kg | 10.60 | 
44 | Cc1cncc(OC[C@H]2CCN2)c1 | 62 µM/kg | 9.80 | 
45 | C[C@@H]1CN[C@H]1COc1ccc(Cl)nc1 |  | 8.12 | 
